Reference: patent publication US8168645B2, “Arylsulfonamide compounds” (Genentech, Inc., priority 2006, dated 2012)

Experiments:
SCLC cell line NCI-H889 = test: CellTitre-Glow luminescent cytotoxicity assay, NCI-H889; format: cell-based; conditions: Homo sapiens; NCI-H889 cells, 48 hr incubation
Protocol: (§1) • 1. SCLC cell lines NCI-H889, NCI-H1963, and NCI-H146 were purchased from American Type Culture Collection. Cells were maintained in RPMI 1640 (Invitrogen Corp., Grand Island, N.Y.) supplemented with 10% fetal bovine serum (FBS, Invitrogen), 1% sodium pyruvate, 25 mM HEPES, 4.5 g/L glucose and 1% penicillin/streptomycin (Sigma) in a humidified chamber at 37° C. containing 5% CO2. • 2. cells were grown as suspension aggregates in a T162 flask with 25 ml medium and kept at concentration of 1 million/mL. Test Compound Stocks: • 1. test compounds were prepared as 10 mM stocks in DMSO and stored at −20° C. Test Compound Serial Dilutions: • 1. prewarmed medium to 37° C. • 2. thawed compounds to room temperature. • 3. determined what will be the highest concentration to be tested. (i.e. 10 μM). • 4. prepared a 2× stock in culture medium of the first dose (i.e. 2×10 μM=20 μM) in an Eppendorf tube (i.e. 4 μl of 5 mM stock into 1000 μl=20 μM). • 5. inverted tube several times to mix. […] Columns 1-10 comprised the serial test compound treatments, column 11 was the untreated control and column 12 was the ‘no cell’ control for determining the background. • 1. in a 96 well plate was added 50 μl medium/well in columns 2 thru 11 and 100 μl was added to column 12. • 2. in column 1 was added 100 μl of 2× compound. • 3. made serial dilutions by transferring 50 μl to column 2, and so on up to column 10. After adding 50 μl to column 10 and mixing, discarded 50 μl. • 4. stored plates at 37° C. until ready to add cells. Cell Preparation • 1. Cell were washed one time in the culture medium and prepared as a suspension. • a. cell were first spun down to remove the medium and then ˜1 ml 0.25% trypsin was added and gently mixed and incubated for no more than three minutes at room temperature. • b. ˜10 ml of the medium was added and the cells were gently pipetted several times. • c. cells were then counted and spun down to the volume necessary for the total cell number needed, then resuspended in the medium to 200 cells/μl concentration (50,000 cells/well). • 2. […]

[1] = molecular target: GST tagged BCl-xL ΔC25 protein (Homo sapiens, UniProt Q07817); test: Alphascreen competition binding assay, GST tagged Bcl-xL vs biotinylated Bim BH3-26 peptide; conditions: competition with Bim BH3-26 peptide; unit inferred
Sequence of GST tagged BCl-xL ΔC25 protein (Q07817 1-208 limits assumed): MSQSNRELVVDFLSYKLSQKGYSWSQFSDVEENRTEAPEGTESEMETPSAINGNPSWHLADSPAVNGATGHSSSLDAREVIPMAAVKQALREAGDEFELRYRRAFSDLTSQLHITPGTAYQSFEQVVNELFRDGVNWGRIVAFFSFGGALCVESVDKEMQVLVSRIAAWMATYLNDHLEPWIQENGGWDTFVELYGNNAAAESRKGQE
Excerpt: (§2) Measurement of competition of compounds of the invention with Bim26-mer for a Bcl-2 homologue binding site.
(§3) Alphascreen (Amplified Luminescent Proximity Homogenous Assay) is a bead based technology which measures the interaction between molecules. The assay consists of two hydrogel coated beads which, when bought into close proximity by a binding interaction, allow the transfer of singlet oxygen from a donor bead to an acceptor bead.
(§4) Upon binding and excitation with laser light at 680 nm, a photosensitizer in the donor bead converts ambient oxygen to a more excited singlet state. This singlet oxygen then diffuses across to react with a chemiluminescer in the acceptor bead. Fluorophores within the same bead are activated resulting in the emission of light at 580-620 nm.
(§5) Screening of the compounds of the invention was performed using the Alphascreen GST (glutathione s-transferase) detection kit system. Test compounds were titrated into the assay which consisted of GST tagged Bclw ΔC29 protein (0.05 nM Final concentration) and Biotinylated Bim BH3-26 peptide, Biotin-[…] (3.0 nM Final concentration). For the GST tagged BCl-xL assay, GST tagged BCl-xL ΔC25 protein (0.6 nM Final concentration) and Biotinylated Bim BH3-26 peptide, Biotin-[…] (5.0 nM final concentration) were used. To this reaction mix anti-GST coated acceptor beads and Streptavidin coated donor beads, both at 15 μg/ml Final concentration, were added and the assay mixture incubated for 4 hours at room temperature before reading. Similarly when the Bcl-2 protein was Mcl-1, GST tagged Mcl-1 protein (0.4 nM Final concentration) and Biotinylated Bak BH3 peptide, Biotin-[…]-OH (4.0 nM Final concentration) were used.
(§6) • 1) prepare a 384 well with 4.75 μL of buffer and 0.25 μL of compounds (20 mM in DMSO) per well. • 2) Mix the binding partners, in one tube add Bcl-w, BCl-xL or Mcl-1 and the acceptor beads, in the second tube add Biotinylated BH3 peptide and the donor beads. • 3) Pre-incubate the two pairs of binding partners for 30 minutes. • 4) Add 1 μL of acceptor beads:Bcl-w, BCl-xL or Mcl-1 protein mix to each well. • 5) Seal the plate and incubate at room temperature for 30 minutes. • 6) Add 10 μL of donor bead:BH3 peptide mix to each well. • 7) Seal the plate, cover with foil and incubate for 4 hours.
(§7) Assay buffer contained 50 mM Hepes pH 7.4, 10 mM DTT, 100 mM NaCl, 0.05% Tween and 0.1 mg/ml casein. Bead dilution buffer contained 50 mM Tris, pH 7.5, 0.01% Tween and 0.1 mg/ml casein. The final DMSO concentration in the assay was 0.5%. Assays were performed in 384 well white Optiplates and analyzed on the PerkinElmer Fusion alpha plate reader (Ex680, Em520-620 nM).
(§8) The GST Alphascreen detection kit and Optiplates were purchased from PerkinElmer.

SCLC cell line NCI-H146 = test: CellTitre-Glow luminescent cytotoxicity assay, NCI-H146; format: cell-based; conditions: Homo sapiens; NCI-H146 cells, 48 hr incubation
Protocol: as §1

SCLC cell line NCI-H1963 = test: CellTitre-Glow luminescent cytotoxicity assay, NCI-H1963; format: cell-based; conditions: Homo sapiens; NCI-H1963 cells, 48 hr incubation
Protocol: as §1

GST tagged Mcl-1 protein = GST tagged Mcl-1 protein (Homo sapiens, UniProt Q07820); test: Alphascreen competition binding assay, GST tagged Mcl-1 vs biotinylated Bak BH3 peptide; conditions: competition with Bak BH3 peptide; unit inferred
Sequence of GST tagged Mcl-1 protein (Q07820 whole entry): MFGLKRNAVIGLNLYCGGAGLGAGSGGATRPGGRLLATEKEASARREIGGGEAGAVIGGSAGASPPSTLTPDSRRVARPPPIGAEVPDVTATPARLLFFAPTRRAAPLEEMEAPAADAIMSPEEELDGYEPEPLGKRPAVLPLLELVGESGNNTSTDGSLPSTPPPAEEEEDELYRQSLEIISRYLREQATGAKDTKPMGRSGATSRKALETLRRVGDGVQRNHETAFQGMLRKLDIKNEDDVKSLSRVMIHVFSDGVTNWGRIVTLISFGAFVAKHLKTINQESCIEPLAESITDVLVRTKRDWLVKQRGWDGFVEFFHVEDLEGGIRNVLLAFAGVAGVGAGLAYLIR
Excerpt: as §2, §3, §4, §5, §6, §7, §8

[2] = system: mouse embryo fibroblasts (MEFs): wild type, Bax/Bak double knockout, Noxa-expressing, Bad-expressing; test: Cell viability assay on mouse embryo fibroblasts (propidium iodide uptake); format: cell-based; conditions: propidium iodide uptake after 24 hours, FIG. 1A/1B
Protocol: FIG. 1 graphically depicts the effect of Compound 1 (FIG. 1A) and Etoposide (FIG. 1B), at increasing concentrations, on the % viability of certain mouse embryo fibroblast (MEF) cells as assessed by propidium iodide uptake after 24 hours. Noxa and Bad were introduced by retrovirally infecting the cells with pMIG retroviruses as described by Chen et al., 2005.
The efficacy of the compounds of the present invention can also be determined in cell based killing assays using a variety of cell lines and mouse tumor models. For example, their activity on cell viability can be assessed on a panel of cultured tumorigenic and non-tumorigenic cell lines, as well as primary mouse or human cell populations, e.g. lymphocytes. For these assays, 5,000-20,000 cells are cultured at 37° C. and 10% CO2 in appropriate growth media, eg: 100 μL Dulbecco's Modified Eagle's medium supplemented with 10% foetal calf serum, asparaginase and 2-mercaptoethanol in the case of pre-B Eμ-Myc mouse tumors in 96 well plates. […] Cell viability is determined by the ability of the cells to exclude propidium iodide (10 μg/mL by immunofluorescence analysis of emission wavelengths of 660-675 nm on a flow cytometer (BD FACScan). Alternatively, a high throughput calorimetric assay such as the Cell Titre 96 could be used. Aqueous Non-Radioactive Cell Proliferation Assay (Promega) may be used. Cell death by apoptosis is confirmed by pre-incubation of the cells with 50 μM of a caspase inhibitor such as zVAD-fmk.
Neutralisation of both Bcl-xL and Mcl-1 anti-apoptotic proteins in normal cells is required before a cell undergoes apoptosis via the downstream Bax/Bak pathway [Chen et al., 2005; Willis et al., 2005]. A compound that only targets Bcl-xL should not affect normal cells, but could kill certain cancer cells if they rely more on Bcl-xL and less on Mcl-1 for survival. To mirror this, compound 1 was tested for its effect on survival of wild type (wt) mouse embryo fibroblasts (MEFs), Bax/Bak double knockout (BB DKO) MEFs, MEFs that expressed Noxa, and MEFs that expressed Bad. Noxa specifically neutralizes Mcl-1.

IC50 [1]: 7 nM
IC50 (GST tagged Mcl-1 protein): 9000 nM
Compound: CN(C)CC[C@H](CSc1ccccc1)Nc1ccc(S(=O)(=O)Nc2ncnc3cc(N4CCN(Cc5ccccc5-c5ccc(Cl)cc5)CC4)ccc23)cc1[N+](=O)[O-] [Compound 1, N-{7-[4-(4′-Chloro-biphenyl-2-ylmethyl)-piperazin-1-yl]-quinazolin-4-yl}-4-((R)-3-dimethylamino-1-phenylsulfanylmethyl-propylamino)-3-nitro-benzenesulfonamide]
EC50 (SCLC cell line NCI-H889): 0.21 µM
EC50 (SCLC cell line NCI-H146): 0.61 µM
EC50 (SCLC cell line NCI-H1963): 0.17 µM
Selectivity of killing of Noxa-expressing MEFs versus MEFs where both Bcl-xL and Mcl-1 are protective (% viability) [2]: much more sensitive to killing
